According to patent US9696323B2, “Biomarkers for chagas disease related cardiomyopathy” (THE BOARD OF REGENTS OF THE UNIVERSITY OF TEXAS SYSTEM, priority 2013, dated 2017):

Legend:
T. cruzi [1] = assay: 2D-GE plasma proteome profile (differential protein expression) of T. cruzi-infected rats treated with PBN and/or BZ; type: in vivo, rat; settings: plasma, RCP/RCB/RCPB groups (chronic infection)
Excerpt: Certain embodiments include biomarkers identified in a previous study. Parasite persistence and oxidative damage in the heart are known to be of pathological significance during Chagas disease (Zacks et al., (2005) An Acad Bras Cienc, 77, 695-715; Gupta et al., (2009) Interdiscip Perspect Infect Dis, 2009, 190354). […] In the previous study the inventors identified 92 proteins that were differentially expressed or oxidized in chagasic plasma. Functional analysis allocated a majority of these proteins to inflammation/immunity and lipid metabolism categories, and to molecular pathways associated with cardiovascular dysfunction, e.g., myocardial infarction, hypertrophy, and fibrosis, and pulmonary embolism and hypertension. Some proteins in chagasic rats treated with PBN and/or BZ were allocated to curative pathways (immune regulation and cardiac remodeling). The 2D-GE results were validated by Western blotting. […] Increased plasma levels of GSN, MYL2, and VIM were directly correlated with the severity of cardiac disease in human chagasic patients. […] These findings have utility in diagnosing disease severity and designing suitable therapy for management of human chagasic patients.
Ingenuity Pathway Analysis (IPA) is a highly curated and comprehensive software used for the integration of proteins into networks and pathways with biological meaning (Thomas and Bonchev, (2010). Hum Genomics, 4, 353-360). Network analysis of the plasma proteome profile of chagasic rats identified four major sub-networks linked to host response to T. cruzi infection and disease development (Table V). The maximal numbers of the differentially expressed plasma proteins (19 proteins) in chagasic rats were associated with antigen presentation and inflammatory response category (Table V) and indicators of persistent inflammation, known to be of pathological significance in Chagas disease (Dhiman et al., (2009) Clinical and Vaccine Immunology, 16, 660-666; Tanowitz et al., (2009) Prog Cardiovasc Dis, 51, 524-539; Junqueira et al., (2010) Expert Rev Mol Med, 12, e29). Following functional analysis of the inflammation-associated proteins, 12 proteins (APOA1, APOE, C3, CFB, CFH, FGB, GSN, KRT10, PLG, SCG2, SERPINA1, and SERPINC1) were identified as being involved in immune cell trafficking and cell movement of leukocytes, granulocytes, phagocytes, neutrophils, and dendritic and antigen presenting cells. Some of the differentially expressed proteins in inflammation category were associated with activation (APOE, C3, CFH, GC and PLG), chemotaxis (C3, SCG2, SERPINA1, SERPINC1), and infiltration of leukocytes (APOA1, APOE, C3, PLG, KRT10) and neutrophils (C3, CFB, CFH, PLG). Up regulation of APOE, APOA1, APOH, GC and PLG in chagasic plasma was indicative of activation, binding and accumulation of macrophages in the disease state. Of the 19 differentially expressed inflammation-associated proteins, 11 proteins (APOE, C3, CFB, CFH, GSN, KRT10, SCG2, SERPINA1, SERPINC1, GC, and PLG) were carbonylated in chagasic plasma. […] Other proteins (APOE, C3, KRT3, and SCG2) were exposed to oxidation due to T. cruzi-induced, acute oxidative stress, but were normalized in expression and oxidation during the chronic phase.
Seventeen of the differentially expressed proteins in chagasic plasma, i.e., AFM, C4BPA, CACNA1D, DLGAP2, GC, KNG1, MUG1, MYLPF, MY05A, MY05B, PRPH, PZP, RAI14, and SCG2, were allotted to the lipid metabolism/molecular transport/small molecule biochemistry category (Table V) and functionally linked by IPA network analysis to lipid, fatty acid, and carbohydrate metabolism. A majority of the proteins in this category, i.e., ALB, APOA1, APOA4, APOE, APOH, C3, GC, GNAQ, MY05A, PLG, SCD2, SERPINA1, SERPINC1 and VIM, were linked to the synthesis, metabolism, transport, and modification of lipids and fatty acids, and to uptake and release or efflux of lipids, eicosanoids, and cholesterol. […]

T. cruzi [2] = assay: Oxidative modification (carbonylation) of plasma proteins in chagasic rats treated with PBN and/or BZ; type: in vivo, rat; settings: infected rats, plasma proteins
Excerpt: Certain embodiments include biomarkers identified in a previous study. Parasite persistence and oxidative damage in the heart are known to be of pathological significance during Chagas disease (Zacks et al., (2005) An Acad Bras Cienc, 77, 695-715; Gupta et al., (2009) Interdiscip Perspect Infect Dis, 2009, 190354). […] In the previous study the inventors identified 92 proteins that were differentially expressed or oxidized in chagasic plasma. Functional analysis allocated a majority of these proteins to inflammation/immunity and lipid metabolism categories, and to molecular pathways associated with cardiovascular dysfunction, e.g., myocardial infarction, hypertrophy, and fibrosis, and pulmonary embolism and hypertension. Some proteins in chagasic rats treated with PBN and/or BZ were allocated to curative pathways (immune regulation and cardiac remodeling). The 2D-GE results were validated by Western blotting. […] Increased plasma levels of GSN, MYL2, and VIM were directly correlated with the severity of cardiac disease in human chagasic patients. […] These findings have utility in diagnosing disease severity and designing suitable therapy for management of human chagasic patients. […]

T. cruzi [3] = settings: infected rats; BZ parasite-induced, PBN oxidative stress-induced (Wen et al. 2006, 2010); cited from earlier work

## O=C(Cn1ccnc1[N+](=O)[O-])NCc1ccccc1 [BZ]
T. cruzi [1]
  Spot# 34 Average Normalized Density × 100,000: 0.37
  Spot# 52, 54, 302 Average Normalized Density × 100,000: 0.60
  Spot# 94 Average Normalized Density × 100,000: 0.55
  Spot# 181 Average Normalized Density × 100,000: 7.53
  Spot# 586, 614 Average Normalized Density × 100,000: 132.20
  Spot# 672 Average Normalized Density × 100,000: 23.29
  Spot# 715 Average Normalized Density × 100,000: 30.96
  Spot# 745 Average Normalized Density × 100,000: 2.30
T. cruzi [2]
  preventing protein carbonylation: not effective in preventing protein carbonylation
T. cruzi [3]
  controlling parasite- and oxidative stress-induced pathology: beneficial effects
